Experimental data reported in patent US20040063165A1, “Light-activated in vitro assay process for luciferase bioluminescence” (priority 2003, published 2004).

Experiments:
luciferase = assay: UV uncaging of caged ATP to trigger luciferase chemiluminescent reaction (Example 1); assay type: biochemical; conditions: 1 millisecond UV pulse, Xenon lamp; pulse power varied 40, 60, 80 mJ per pulse; ATP the limiting factor
Experimental: In this experiment, caged ATP was utilized to control the reaction. […] Reagents:
Lyophilized luciferase/lyophilized D-Luciferin were dissolved in Tricine buffer [50 mM N-tris(hydroxymethyl)methylglycine, adjusted with NaOH to pH 7.8, Lot 1418] both supplied by Kikkoman as assay kit, CheckLite HS Plus, Catalog # 60342).
5 mM Mg citrate in phosphate buffered saline (PBS, pH 7.4)
Caged ATP (p-(1-(4,5-dimethoxy-2-nitrophenyl)ether, disodium salt-caged adenosine-5-triphosphate) in methanol, 5 mg in 300 μL (Molecular probes, Catalog # A-1049).
In a total reaction volume of 20 μL, the following were mixed in a suitable reaction cell
10 μL of Luciferase/D-Luciferin solution mix,
5 μL of 5 mM Mg Citrate in PBS
5 μL of caged ATP solution.

[1] = test system: Firefly luciferase enzyme; conditions: 1 millisecond UV pulse, Xenon lamp; pulse power varied 40, 60, 80 mJ per pulse; D-Luciferin the limiting factor
Experimental: In this experiment, caged D-Luciferin was utilized to control the reaction.
Functional D-Luciferin was delivered to the reaction from caged D-Luciferin upon exposure of the reaction components to a pulse of UV light with suitable power.
Firefly luciferase enzyme dissolved in Tricine buffer pH 7.8 (50 mM N-Tris (hydroxymethyl) methylglycine) adjusted with NaOH, supplied by Kikkoman Catalog LUC T
5 mM Mg citrate in PBS, pH 7.4-
100 mM ATP solution, pH 7.5 (Amersham Pharmacia, Catalog No. 272056).
In a total reaction volume of 25 μL, the following components were added as solutions to a suitable cell:
10 μL of luciferase solution
5 μL of 5 mM Mg citrate in PBS
5 μL of 1 mM ATP solution
5 μL caged D-Luciferin solution.
The cell with the components was exposed to a pulse of UV (1 millisecond_pulse by a Xenon Lamp, Rapp Optoelectronic). The power of the UV pulse was varied (40, 60, 80 mJ per pulse).

Compound | amount of light released from the reaction (luciferase) | amount of light released from the reaction [1]
COc1cc(C(C)OP(=O)([O-])OP(=O)(O)OP(=O)([O-])OCC2OC(n3cnc4c(N)ncnc43)C(O)C2O)c([N+](=O)[O-])cc1OC.[Na+].[Na+] (centres unmarked) [caged ATP, p-(1-(4,5-dimethoxy-2-nitrophenyl)ether, disodium salt-cagedadenosine-5-triphosphate)] | increased with the increase of the UV pulse power | 
1-(4,5-dimethoxy-2-nitrophenyl)ethyl ester—caged D-luciferin |  | increased with the increase of the UV pulse power
